SMILES strings stand for the structures.

One assay has as its system HCC 1806 cells. The assay is described as follows: Cell proliferation inhibitory effect on human breast cancer cell line (crystal violet, 72 hours). The class given is cell-based. Particulars: Homo sapiens, HCC1806, 72 h, read-out: Cell growth suppression IC50. Here is the method:
Human derived breast cancer cell line HCC 1806 cells were daily passaged at a cell density not exceeding 80% in ATCC recommended Roswell Park Memorial Institute medium (RPMI-1640) containing 10% fetal bovine serum (FBS). In order to start the test of cell proliferation inhibitory activity, HCC 1806 cells were suspended in the above medium, after seeing at 180 μL in each well of a 96-well flat bottom plate so that the number of cells per well was 2,000, the cells were cultured at 37° C. for 1 day in an incubator containing 5% carbon dioxide gas. On the next day, the test compound was dissolved in DMSO, and 20 μL of a drug additive solution diluted serially with distilled water to 10 times of the final concentration was added to each well of the culture plate of the cells, and the cells were cultured at 37° C. for 72 hours in an incubator containing 5% carbon dioxide gas. After culturing for 72 hours, 20 μL of glutaraldehyde was added to each well and allowed to stand for 30 minutes, then the plate was washed 10 times with water and was dried. 100 μL of a stain solution (0.05% crystal violet in a 20% methanol solution) was added to each well and allowed to stand for 30 minutes, then the plate was washed 10 times with water and was dried. 100 μL of an extract solution (0.1 N NaH2PO4: 100% ethanol=1:1) was added to each well and mixed, and the mixture was measured at a wavelength of 540 nm using a plate reader (MTP-450 manufactured by Corona Electric Co., Ltd.). The growth inhibition rate was calculated from the following formula, and the concentration (IC50 (μM)) of a test compound inhibiting 50% was determined. Growth inhibition rate (%)={(C−B)−(T−B)}/(C−B)×100
T: Absorbance of well to which test compound was added
C: Absorbance of wells to which no test compound was added
B: Absorbance of wells to which no cell suspension was added
As to `C[C@H](c1c(F)ccc2ccccc12)[C@H](NS(=O)(=O)c1ccc(Cl)c2c1OCCC2F)c1n[nH]c(=O)o1` (mixture of isomers) [Example 292, 5-chloro-4-fluoro-N-((1S,2R)-2-(2-fluoronaphthalen-1-yl)-1-(5-oxo-4,5-dihydro-1,3,4-oxadiazol-2-yl)propyl)chroman-8-sulfonamide], the half-maximal inhibitory concentration (IC50) is 750 nM.
Consider `Cc1c(Cl)ccc(F)c1[C@@H](C)[C@H](NS(=O)(=O)c1ccc(Cl)c2c1OCCC2(C)N)c1n[nH]c(=O)o1` (mixture of isomers) [Example 328, 4-amino-5-chloro-N-((1S,2R)-2-(3-chloro-6-fluoro-2-methylphenyl)-1-(5-oxo-4,5-dihydro-1,3,4-oxadiazol-2-yl)propyl)-4-methylchroman-8-sulfonamide], for which the half-maximal inhibitory concentration (IC50) turned out to be 410 nM.
As to `Cc1ccc(F)c([C@@H](C)[C@H](NS(=O)(=O)c2ccc(Cl)c3c2OCCC3(O)C(F)(F)F)c2n[nH]c(=O)o2)c1C` (single isomer, unassigned) [Example 220A], the IC50 worked out at 370 nM.
Take `Cc1ccc(F)c([C@@H](C)[C@H](NS(=O)(=O)c2ccc(F)c3c2OCCC3(C)O)c2n[nH]c(=O)o2)c1C` (single isomer, unassigned) [Example 224A]: the IC50 worked out at 100 nM.
As to `Cc1ccc(F)c([C@@H](C)[C@H](NS(=O)(=O)c2ccc(F)c3c2OCCC3(C)O)c2n[nH]c(=O)o2)c1C` (single isomer, unassigned) [Example 224B], the 50% inhibitory concentration (IC50) is 770 nM.
On the same count and under the same terms, with `Cc1c(Br)ccc(F)c1[C@@H](C)[C@H](NS(=O)(=O)c1ccc(F)c2c1OCCC2(C)O)c1n[nH]c(=O)o1` (single isomer, unassigned) [Example 227A] the figure was 190 nM.
On the same count and under the same terms, as for `Cc1c(Cl)ccc(F)c1[C@@H](C)[C@H](NS(=O)(=O)c1ccc(F)c2c1OCCC2(C)O)c1n[nH]c(=O)o1` (single isomer, unassigned) [Example 229A], the figure is 310 nM.
Same read-out and setting: with `C[C@H](c1c(F)ccc2ccccc12)[C@H](NS(=O)(=O)c1ccc(Cl)c2c1OCCC2O)c1n[nH]c(=O)o1` (single isomer, unassigned) [Example 234A] the figure was 570 nM; with `Cc1c(Cl)ccc(F)c1[C@@H](C)[C@H](NS(=O)(=O)c1ccc(Cl)c2c1OCCC2O)c1n[nH]c(=O)o1` (single isomer, unassigned) [Example 238A], 440 nM.
For `CCc1ccc(F)c([C@@H](C)[C@H](NS(=O)(=O)c2ccc(Cl)c3c2OCCC3O)c2n[nH]c(=O)o2)c1C` (single isomer, unassigned) [Example 239A], the concentration for half-maximal inhibition (IC50) amounted to 720 nM.
Take `Cc1ccc(F)c([C@@H](C)[C@H](NS(=O)(=O)c2ccc(C(F)(F)F)c3c2OCCC3O)c2n[nH]c(=O)o2)c1C` (single isomer, unassigned) [Example 244A]: the half-maximal inhibitory concentration (IC50) was determined as 720 nM.
Take `Cc1c(Cl)ccc(F)c1[C@@H](C)[C@H](NS(=O)(=O)c1ccc(Cl)c2c1OCCC2(C)N)c1n[nH]c(=O)o1` (single isomer, unassigned) [Example 330A]: the IC50 worked out at 240 nM.
Take `C[C@H](c1c(F)ccc2ccccc12)[C@H](NS(=O)(=O)c1ccc(Cl)cc1C(N)=O)c1n[nH]c(=O)o1` [Example 6, 5-chloro-2-(N-((1S,2R)-2-(2-fluoronaphthalen-1-yl)-1-(5-oxo-4,5-dihydro-1,3,4-oxadiazol-2-yl)propyl)sulfamoyl)benzamide]: the IC50 was found to be 290 nM.
Consider `Cc1ccc(S(=O)(=O)N[C@H](c2n[nH]c(=O)o2)[C@H](C)c2c(F)ccc(C)c2C)c(C(N)=O)c1` [Example 10, 2-(N-((1S,2R)-2-(3-6-fluoro-2,3-dimethylphenyl)-1-(5-oxo-4,5-dihydro-1,3,4-oxadiazol-2-yl)propyl)sulfamoyl)-5-methylbenzamide], for which the IC50 is 560 nM.
`Cc1ccc(S(=O)(=O)N[C@H](c2n[nH]c(=O)o2)[C@H](C)c2c(F)ccc3ccccc23)c(C(N)=O)c1` [Example 12, 2-(N-((1S,2R)-2-(2-Fluoronaphthalen-1-yl)-1-(5-oxo-4,5-dihydro-1,3,4-oxadiazol-2-yl)propyl)sulfamoyl)-5-methylbenzamide]: the IC50 came out at 500 nM.

Staying with this assay, now noted: read-out: Cell growth suppression IC50.
Consider `[2H]C([2H])([2H])C1(O)CCOc2c(S(=O)(=O)N[C@H](c3n[nH]c(=O)o3)[C@H](C)c3c(F)ccc(C)c3C)ccc(Cl)c21` (single isomer, unassigned) [Example 200B], for which the IC50 turned out to be 460 nM.
`Cc1ccc(F)c([C@@H](C)[C@H](NS(=O)(=O)c2ccc(Cl)c3c2OCCC3(C)O)c2n[nH]c(=O)o2)c1C` (single isomer, unassigned) [Example 207A]: the IC50 came to 70 nM.
With `Cc1ccc(F)c([C@@H](C)[C@H](NS(=O)(=O)c2ccc(Cl)c3c2OCCC3(C)O)c2n[nH]c(=O)o2)c1C` (single isomer, unassigned) [Example 207B], the IC50 came out at 250 nM.
As to `COc1c(S(=O)(=O)N[C@H](c2n[nH]c(=O)o2)[C@H](C)c2c(F)ccc(C)c2C)ccc(Cl)c1C(C)O` (single isomer, unassigned) [Example 208A], the half-inhibitory concentration (IC50) was 330 nM.
With `COc1c(S(=O)(=O)N[C@H](c2n[nH]c(=O)o2)[C@H](C)c2c(F)ccc(C)c2C)ccc(Cl)c1C(C)O` (single isomer, unassigned) [Example 208B], the 50% inhibitory concentration (IC50) turned out to be 50 nM.
In the case of `Cc1c(Cl)ccc(F)c1[C@@H](C)[C@H](NS(=O)(=O)c1ccc(Cl)c2c1OCCC2(C)O)c1n[nH]c(=O)o1` (single isomer, unassigned) [Example 209B], the half-inhibitory concentration (IC50) is 820 nM.
For the compound `Cc1ccc(F)c([C@@H](C)[C@H](NS(=O)(=O)c2ccc(Cl)c3c2OCCC3(O)C(F)(F)F)c2n[nH]c(=O)o2)c1C` (single isomer, unassigned) [Example 220B], the IC50 stood at 500 nM.
With `Cc1c(Br)ccc(F)c1[C@@H](C)[C@H](NS(=O)(=O)c1ccc(Cl)c2c1OCCC2(C)O)c1n[nH]c(=O)o1` (single isomer, unassigned) [Example 222B], the half-inhibitory concentration (IC50) was found to be 670 nM.
Turning to `[2H]C([2H])([2H])C1(O)CCOc2c(S(=O)(=O)N[C@H](c3n[nH]c(=O)o3)[C@H](C)c3c(F)ccc(Br)c3C)ccc(Cl)c21` (single isomer, unassigned) [Example 226A], the 50% inhibitory concentration (IC50) was 80 nM.
Consider `[2H]C([2H])([2H])C1(O)CCOc2c(S(=O)(=O)N[C@H](c3n[nH]c(=O)o3)[C@H](C)c3c(F)ccc(Br)c3C)ccc(Cl)c21` (single isomer, unassigned) [Example 226B], for which the IC50 was 300 nM.
Regarding `Cc1ccc(F)c([C@@H](C)[C@H](NS(=O)(=O)c2ccc(F)c3c2OCCC3O)c2n[nH]c(=O)o2)c1C` (single isomer, unassigned) [Example 230A], the IC50 is 290 nM.
In the case of `Cc1ccc(F)c([C@@H](C)[C@H](NS(=O)(=O)c2ccc(F)c3c2OCCC3O)c2n[nH]c(=O)o2)c1C` (single isomer, unassigned) [Example 230B], the IC50 is 780 nM.
With `Cc1ccc(F)c([C@@H](C)[C@H](NS(=O)(=O)c2ccc(Cl)c3c2OCCC3O)c2n[nH]c(=O)o2)c1C` (single isomer, unassigned) [Example 235B], the half-maximal inhibitory concentration (IC50) turned out to be 400 nM.
In the case of `Cc1c(Br)ccc(F)c1[C@@H](C)[C@H](NS(=O)(=O)c1ccc(Cl)c2c1OCCC2O)c1n[nH]c(=O)o1` (single isomer, unassigned) [Example 243A], the IC50 is 290 nM.
As to `Cc1c(Br)ccc(F)c1[C@@H](C)[C@H](NS(=O)(=O)c1ccc(Cl)c2c1OCCC2O)c1n[nH]c(=O)o1` (single isomer, unassigned) [Example 243B], the IC50 amounted to 700 nM.

As usually defined, the IC50 is the point on the concentration scale where inhibition reaches its midpoint.
